Test results as given in patent US20210206758A1, “NAPHTHYRIDINES AS INTEGRIN ANTAGONISTS” (GlaxoSmithKline Intellectual Property Development Limited, priority 2016, published 2021).

Tests used:
Format in all cases: cell-based
[1] = target: T1, αvβ6 (Homo sapiens, UniProt P06756+P18564); experiment: Cell adhesion assay, K562-αvβ6 (LAP-b1); settings: K562-αvβ6 cells, ligand LAP-b1, 2 mM MgCl2; mean; read-out: αvβ6 pIC50 (mean affinity, cell Adhesion Assay) (converted)
T1 construct: expressed in transfected cells; host or cells: K562
Description: (§1) Reagents and methods utilised are as described [Ludbrook et al, Biochem. J. 2003, 369, 311 and Macdonald et al. ACS Med. Chem. Lett. 2014, 5, 1207-1212 for αvβ8 assay), with the following points of clarification. The following cell lines are used, with ligands in brackets: K562-αvβ3 (LAP-b1), K562-αvβ5 (Vitronectin), K562-αvβ6 (LAP-b1), K562-αvβ8 (LAP-b1), A549-αvβ1 (LAP-b1). The divalent cation used to facilitate adhesion is 2 mM MgCl2. Adhesion is quantified by cell labelling with the fluorescent dye BCECF-AM (Life Technologies), where cell suspensions at 3×10^6 cells/mL are incubated with 0.33 uL/mL of 30 mM BCECF-AM at 37° C. for 10 minutes, then 50 μL/well are dispensed into the 96-well assay plate. At the assay conclusion cells that adhered are lysed using 50 μL/well of 0.5% Triton X-100 in H2O to release fluorescence. Fluorescence intensity is detected using an Envision® plate reader (Perkin Elmer). For active antagonists in the assay, data is fitted to a 4 parameter logistic equation for IC50 determinations.

[2] = target: T2, αvβ8 (Homo sapiens, UniProt P06756+P26012); experiment: Cell adhesion assay, K562-αvβ8 (LAP-b1); settings: K562-αvβ8 cells, ligand LAP-b1, 2 mM MgCl2; mean; read-out: αvβ8 pIC50 (mean affinity, cell Adhesion Assay) (converted)
T2 construct: expressed in transfected cells; host or cells: K562
Description: as §1

[3] = target: T3, αvβ3 (Homo sapiens, UniProt P05106+P06756); experiment: Cell adhesion assay, K562-αvβ3 (LAP-b1); settings: K562-αvβ3 cells, ligand LAP-b1, 2 mM MgCl2; mean; read-out: αvβ3 pIC50 (mean affinity, cell Adhesion Assay) (converted)
T3 construct: expressed in transfected cells; host or cells: K562
Description: as §1

[4] = target: T4, αvβ1 (Homo sapiens, UniProt P05556+P06756); experiment: Cell adhesion assay, A549-αvβ1 (LAP-b1); settings: A549-αvβ1 cells, ligand LAP-b1, 2 mM MgCl2; mean; read-out: αvβ1 pIC50 (mean affinity, cell Adhesion Assay) (converted)
T4 construct: host or cells: A549
Description: as §1

[5] = target: T5, αvβ5 (Homo sapiens, UniProt P06756+P18084); experiment: Cell adhesion assay, K562-αvβ5 (Vitronectin); settings: K562-αvβ5 cells, ligand Vitronectin, 2 mM MgCl2; mean; read-out: αvβ5 pIC50 (mean affinity, cell Adhesion Assay) (converted)
T5 construct: expressed in transfected cells; host or cells: K562
Description: as §1

T4 sequence (P06756 31-889 limits assumed): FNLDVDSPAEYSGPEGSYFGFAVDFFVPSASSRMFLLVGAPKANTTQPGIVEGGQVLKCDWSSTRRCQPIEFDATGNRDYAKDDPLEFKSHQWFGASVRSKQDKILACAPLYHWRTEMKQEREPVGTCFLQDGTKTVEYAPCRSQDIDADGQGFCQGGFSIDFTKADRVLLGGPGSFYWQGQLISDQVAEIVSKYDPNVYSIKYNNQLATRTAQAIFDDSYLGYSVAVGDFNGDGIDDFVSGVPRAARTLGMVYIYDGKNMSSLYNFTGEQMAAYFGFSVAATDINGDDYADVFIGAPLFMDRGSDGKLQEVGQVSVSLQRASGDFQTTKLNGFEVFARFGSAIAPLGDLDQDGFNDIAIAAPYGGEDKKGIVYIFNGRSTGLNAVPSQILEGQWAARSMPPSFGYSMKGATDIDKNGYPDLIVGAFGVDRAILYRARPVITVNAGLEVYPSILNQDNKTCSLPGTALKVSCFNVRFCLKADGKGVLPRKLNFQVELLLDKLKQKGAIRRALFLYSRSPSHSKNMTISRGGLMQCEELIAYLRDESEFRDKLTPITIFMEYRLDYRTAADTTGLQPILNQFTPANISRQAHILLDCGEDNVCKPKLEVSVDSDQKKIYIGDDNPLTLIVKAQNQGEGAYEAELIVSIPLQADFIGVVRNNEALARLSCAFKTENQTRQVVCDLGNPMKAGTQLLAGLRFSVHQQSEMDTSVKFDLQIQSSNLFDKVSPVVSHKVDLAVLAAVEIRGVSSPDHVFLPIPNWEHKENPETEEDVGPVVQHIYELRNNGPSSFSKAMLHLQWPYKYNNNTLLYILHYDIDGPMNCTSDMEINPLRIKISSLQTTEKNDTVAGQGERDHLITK
T4 sequence (P06756 891-1048 partner limits assumed): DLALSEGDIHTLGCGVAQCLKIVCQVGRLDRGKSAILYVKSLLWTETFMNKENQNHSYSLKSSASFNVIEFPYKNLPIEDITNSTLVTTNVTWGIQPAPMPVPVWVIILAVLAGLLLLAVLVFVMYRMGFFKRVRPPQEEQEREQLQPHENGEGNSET
T4 sequence (P05556 21-798): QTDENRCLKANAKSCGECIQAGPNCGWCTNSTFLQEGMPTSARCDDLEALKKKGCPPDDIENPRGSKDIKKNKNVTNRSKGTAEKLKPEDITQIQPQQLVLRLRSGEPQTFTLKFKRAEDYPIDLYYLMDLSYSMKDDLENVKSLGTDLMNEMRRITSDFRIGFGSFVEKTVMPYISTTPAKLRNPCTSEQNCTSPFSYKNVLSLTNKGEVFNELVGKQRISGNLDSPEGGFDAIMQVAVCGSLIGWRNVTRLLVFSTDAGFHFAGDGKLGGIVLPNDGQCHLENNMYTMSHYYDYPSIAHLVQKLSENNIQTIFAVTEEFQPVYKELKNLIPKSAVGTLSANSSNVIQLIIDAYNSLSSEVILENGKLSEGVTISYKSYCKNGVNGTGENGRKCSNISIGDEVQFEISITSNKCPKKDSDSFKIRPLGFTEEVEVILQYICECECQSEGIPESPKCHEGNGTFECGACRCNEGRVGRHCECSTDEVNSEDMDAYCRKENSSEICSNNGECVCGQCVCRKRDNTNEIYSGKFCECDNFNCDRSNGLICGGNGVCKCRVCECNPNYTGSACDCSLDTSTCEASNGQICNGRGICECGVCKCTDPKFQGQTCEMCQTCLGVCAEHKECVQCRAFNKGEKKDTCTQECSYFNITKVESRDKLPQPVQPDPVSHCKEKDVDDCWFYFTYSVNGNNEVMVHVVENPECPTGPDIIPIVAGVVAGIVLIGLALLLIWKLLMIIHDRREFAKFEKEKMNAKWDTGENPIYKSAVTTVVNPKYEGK
T3 sequence (P06756 31-889 limits assumed): as the sequence (P06756 31-889 limits assumed) above
T3 sequence (P06756 891-1048 partner limits assumed): as the sequence (P06756 891-1048 partner limits assumed) above
T3 sequence (P05106 27-788): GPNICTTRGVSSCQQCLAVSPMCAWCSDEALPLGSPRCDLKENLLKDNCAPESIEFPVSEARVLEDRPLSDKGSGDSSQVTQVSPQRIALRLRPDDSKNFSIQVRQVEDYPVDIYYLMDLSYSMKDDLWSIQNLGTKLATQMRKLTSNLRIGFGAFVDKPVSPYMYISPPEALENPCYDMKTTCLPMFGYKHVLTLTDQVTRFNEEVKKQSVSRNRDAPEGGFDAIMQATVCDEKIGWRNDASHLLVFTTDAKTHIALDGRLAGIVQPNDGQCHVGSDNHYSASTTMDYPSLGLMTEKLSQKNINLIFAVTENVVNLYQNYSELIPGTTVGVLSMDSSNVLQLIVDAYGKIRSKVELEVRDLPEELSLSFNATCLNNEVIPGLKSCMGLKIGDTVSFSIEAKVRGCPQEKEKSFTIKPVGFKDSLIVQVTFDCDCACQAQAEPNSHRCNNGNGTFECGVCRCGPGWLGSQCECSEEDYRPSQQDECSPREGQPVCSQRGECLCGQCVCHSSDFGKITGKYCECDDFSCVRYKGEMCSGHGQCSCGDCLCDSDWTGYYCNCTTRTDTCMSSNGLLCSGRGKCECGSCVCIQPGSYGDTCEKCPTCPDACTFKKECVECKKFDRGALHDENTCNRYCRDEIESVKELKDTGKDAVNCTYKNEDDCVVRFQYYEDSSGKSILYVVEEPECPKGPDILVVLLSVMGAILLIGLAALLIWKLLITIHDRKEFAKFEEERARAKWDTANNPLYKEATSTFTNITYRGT
T2 sequence (P06756 31-889 limits assumed): as the sequence (P06756 31-889 limits assumed) above
T2 sequence (P06756 891-1048 partner limits assumed): as the sequence (P06756 891-1048 partner limits assumed) above
T2 sequence (P26012 43-769): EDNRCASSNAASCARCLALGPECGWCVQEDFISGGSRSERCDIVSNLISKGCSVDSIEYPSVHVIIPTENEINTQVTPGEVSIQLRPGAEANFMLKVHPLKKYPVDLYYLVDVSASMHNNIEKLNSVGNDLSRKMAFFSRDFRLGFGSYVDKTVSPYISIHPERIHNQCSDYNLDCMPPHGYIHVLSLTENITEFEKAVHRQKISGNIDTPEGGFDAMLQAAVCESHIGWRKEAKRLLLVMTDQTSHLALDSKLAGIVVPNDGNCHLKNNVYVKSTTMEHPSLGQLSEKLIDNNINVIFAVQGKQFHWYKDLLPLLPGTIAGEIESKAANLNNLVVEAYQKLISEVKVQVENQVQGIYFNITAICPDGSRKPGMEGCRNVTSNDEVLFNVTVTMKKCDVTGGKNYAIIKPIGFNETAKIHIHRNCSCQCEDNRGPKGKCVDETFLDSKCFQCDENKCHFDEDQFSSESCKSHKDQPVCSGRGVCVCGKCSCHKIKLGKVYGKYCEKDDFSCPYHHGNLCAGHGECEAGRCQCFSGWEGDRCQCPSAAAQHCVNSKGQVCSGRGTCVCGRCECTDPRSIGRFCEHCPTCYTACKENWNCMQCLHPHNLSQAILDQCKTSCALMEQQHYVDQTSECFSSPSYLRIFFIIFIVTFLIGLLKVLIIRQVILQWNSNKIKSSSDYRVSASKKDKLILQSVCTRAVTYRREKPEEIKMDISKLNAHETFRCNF
T5 sequence (P06756 31-889 limits assumed): as the sequence (P06756 31-889 limits assumed) above
T5 sequence (P06756 891-1048 partner limits assumed): as the sequence (P06756 891-1048 partner limits assumed) above
T5 sequence (P18084 24-799): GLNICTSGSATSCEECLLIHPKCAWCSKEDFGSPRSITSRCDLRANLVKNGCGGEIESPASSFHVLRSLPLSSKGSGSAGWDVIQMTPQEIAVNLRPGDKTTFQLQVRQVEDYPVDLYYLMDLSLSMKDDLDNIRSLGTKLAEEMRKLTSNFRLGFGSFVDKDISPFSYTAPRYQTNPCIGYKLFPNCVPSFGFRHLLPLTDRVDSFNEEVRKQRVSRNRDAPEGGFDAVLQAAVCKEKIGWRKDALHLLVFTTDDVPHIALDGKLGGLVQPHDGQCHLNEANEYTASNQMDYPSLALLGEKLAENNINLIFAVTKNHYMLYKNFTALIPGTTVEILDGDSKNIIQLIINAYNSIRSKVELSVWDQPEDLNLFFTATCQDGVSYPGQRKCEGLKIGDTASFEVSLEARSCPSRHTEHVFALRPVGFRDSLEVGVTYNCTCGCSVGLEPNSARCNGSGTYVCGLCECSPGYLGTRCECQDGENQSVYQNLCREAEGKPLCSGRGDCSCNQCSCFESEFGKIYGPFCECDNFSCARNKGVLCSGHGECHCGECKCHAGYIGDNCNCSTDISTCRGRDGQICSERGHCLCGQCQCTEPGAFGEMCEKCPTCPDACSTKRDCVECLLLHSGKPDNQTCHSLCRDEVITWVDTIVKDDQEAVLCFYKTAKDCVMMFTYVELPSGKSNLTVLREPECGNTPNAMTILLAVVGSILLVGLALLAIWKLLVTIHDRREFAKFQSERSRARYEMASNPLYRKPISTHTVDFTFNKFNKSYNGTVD

Q: O=C(O)C[C@H](CN1CC[C@@](F)(CCc2ccc3c(n2)NCCC3)C1)c1cccc(OC[C@H]2CCCO2)c1 [Example 1, (S)-4-((S)-3-Fluoro-3-(2-(5,6,7,8-tetrahydro-1,8-naphthyridin-2-yl)ethyl)pyrrolidin-1-yl)-3-(3-(((R)-tetrahydrofuran-2-yl)methoxy)phenyl)butanoic acid] was tested. Which IC50 [1] did it give?
A: 25.1 nM

Q: What about the IC50 [2] of the same compound?
A: 100 nM

Q: And the IC50 [3]?
A: 79.4 nM

Q: What about the IC50 [4] of the same compound?
A: 2000 nM

Q: And the IC50 [5]?
A: 251 nM
